Reference: patent US20210113685A1, “POLYPEPTIDE DRUG AGAINST HEPATITIS B VIRUS PROTEIN” (priority 2011, published 2021)
Where no end group is shown, it is not given here.

Experiments:
L-O2-X cells = assay: MTT assay, L-O2-X cells; assay type: cell-based; settings: synthesized polypeptide 0.1-100 μM, 48 hr
Description: (§1) (1) Plate the cells: suspended the cells at exponential phase (the cells in the above Table 1) in RPMI1640 or DMEM medium with 10% FBS, and plated 4000-5000 cells in a 96-well plate with 100 μl per well; Culture the cells: Within 12 hr for adhesion of cultured cells, different amount of polypeptides plasmids from Step A (0.25 μg, 0.5 μg and 0.75 μg) or different concentrations of synthesized polypeptides from Example 1 (0.1 μM, 1 μM, 10 μM and 100 μM) were transfected with 8 wells for each concentration, and were incubated for 48 hr in the same condition. 0.3 μg pEGFP-C2 plasmids and 1 μg p-Anti-HBxP1 # were cotransfected, and using a fluorescence microscope to check for cells containing the GFP plasmid after 24 hr to make sure the percentage of cells that contain GFP is over 70%;
(§2) (2) Coloration: added 20 μl MTT solution (5 mg/ml MTT in PBS buffer (pH7.4)) for each well;
(§3) (3) Incubated for 4 hr, and carefully aspirate off the supernatant from the wells. Added 150 μl DMSO into each well, shaking for 10 min until the crystals dissolved;
(§4) (4) Comparison: Read in an ELISA reader at 490 nm to measure the absorbance for each well. Results were calculated by using Student's t-test.

HepG2-X cells [1] = assay: MTT assay, HepG2-X cells; assay type: cell-based; settings: synthesized polypeptide 0.1-100 μM, 48 hr
From the text: (§5) Two cell lines were adopted in the experiment. One is constitutive expression HBx of hepatoma cell HepG2 (stable transfected hepatoma cell HepG2 expressing HBx), and the other one is constitutive expression Hepatitis B virus complete genome of hepatoma cell HepG2.2.15 (stable transfected hepatoma cell HepG2 expressing HBV complete genome). Because HBx functions to activate the transcription factor NF-κB, it is possible to detect the inhibition of HBx at the molecular level by reporter gene-based assays. […]
as §1, with “70%; […]” for “70%;”
(§6) (4) Comparison: Read in an ELISA reader at 490 nm to measure the absorbance for each well. […]

[2] = Polypeptide drugs acute toxicity test; assay type: in vivo, Kunming white mice; settings: 1 g/kg tail intravenous injection; observed 24 hr
Description: Control group and experimental group contained 10 Kunming white mice, with 5 females and 5 males, respectively. Experimental group injected Anti-HBxP1 # with the concentration of 1 g/kg ([…] dried polypeptide drug solved in 0.124 ml ddH2O) by tail intravenous injection; control group, injected 0.25 ml ddH2O. Consecutively observed the mice for 24 hr after injection.

L-O2 = assay: MTT assay, L-O2 cells; assay type: cell-based; settings: L-O2 (no HBx); synthesized polypeptide 0.1-100 μM, 48 hr
Description: as §1, §2, §3, §4

HepG2.2.15 cells [3] = assay: MTT assay, HepG2.2.15 cells; assay type: cell-based; settings: synthesized polypeptide 0.1-100 μM, 48 hr
From the text: as §5
as §1, with “70%; […]” for “70%;”
as §6

HepG2 = assay: MTT assay, HepG2 cells; assay type: cell-based; settings: HepG2 (no HBx); synthesized polypeptide 0.1-100 μM, 48 hr
Description: as §1, §2, §3, §4

[4] = test system: NF-κB promoter (HBx-activated); assay: Dual-luciferase reporter gene analysis (pGL3-NF-κB); assay type: cell-based; settings: incubation with synthesized polypeptide 0.1-100 μM, 24 hr
From the text: Two cell lines were adopted in the experiment. One is constitutive expression HBx of hepatoma cell HepG2 (stable transfected hepatoma cell HepG2 expressing HBx), and the other one is constitutive expression Hepatitis B virus complete genome of hepatoma cell HepG2.2.15 (stable transfected hepatoma cell HepG2 expressing HBV complete genome). Because HBx functions to activate the transcription factor NF-κB, it is possible to detect the inhibition of HBx at the molecular level by reporter gene-based assays. Due to the role of HBx on promoting the growth and proliferation of hepatoma cells, it can test the effects of the polypeptides on the proliferation of HepG2-X cell and HepG2.2.15 cell by (3-(4,5-dimethylthiazol-2-yl)-2,5-diphenyltetrazolium bromide (MTT).
(1) Plated the cells at exponential phase (the cells in the above Table 1) at a density 0.75×10^5 cells/ml in a 24-well plate with 500 μl per well. Ideally cells should be 90% confluent prior to transfection;
(2) Reporter gene vectors containing promoter (pGL3-NF-κB, 0.3 μg, purchased from Yuanhaoping (Tianjin) Biological Technology Co., Ltd) were transfected into cells by using lipofectamine transfection reagent, and Renilla luciferase expressing vectors (pRL-TK, 0.1 μg, purchased from Promega) were transfected as controls. Simultaneously, different amount of polypeptides plasmids from Step A (0.25 μg, 0.5 μg and 0.75 μg) or different concentrations of synthesized polypeptides from Example 1 (0.1 μM, 1 μM, 10 μM and 100 μM) were added, and repeated each concentration in three wells;
(3) After transfection for 48 hr (or after incubation with artificial synthesized polypeptide Anti-HBxP1 # for 24 hr), washed the cells with PBS for three times;
(4) Added 100 μl 1× Passive Lysis Buffer (PLB) into transfected cells per well, and lysed the cell at room temperature for 15 min. Transferred the cell lysate to a 1.5 ml Eppendorf (EP) tube;
(5) Centrifuged at 12,000 rpm for 30 min, and transferred the supernatant to a fresh EP tube;
(6) Added an aliquot of cell lysate into each EP tube with 100 μl Luciferase Assay Buffer II (LARII), and mixed well;
(7) Immediately put the EP tubes into a Luminometer (manufactured by Turner Biosystems). Within 10 sec after 2 sec balance, measured the luminescence.
(8) Added 100 μl fluorescence bleacher. Firefly luciferase was quenched, while Renilla luciferase started to react.
(9) Measured the luminescence within 10 sec.
The relative activity was the ratio of the value of the first luminescence to the value of the second luminescence.
Results shown are representative of three independent experiments according to Mean±SD, and statistical significance was calculated using Student's t test.

HepG2-X cells [5] = assay: Inoculation experiment in nude mice, HepG2-X cells; assay type: in vivo
Description: (§7) Suspended the HepG2-X or HepG2.2.15 cells at exponential phase by treating with trypsin, and counted the number of cells to dilute to 1×10^7 cells/ml with physiological saline, and then store in the ice water. 12 Mice used were 4- to 6-week-old BALB/C females, and were randomly divided into two groups: @Control group, injected 0.2 ml diluted cells to the armpit of left forelimb for each mouse, and only injected 0.5 ml ddH2O (without polypeptide drugs); 0 experimental group (the treatment dose was 10 mg/kg), injected 0.2 ml diluted cells to the armpit of left forelimb for each mouse, and within 7 days after the injection, tumor volume (V=L×W^2×0.5) reached to 100 mm^3. And then, injected the above mentioned polypeptide drugs (dried polypeptide drug solved in 0.5 ml ddH2O) once in two day, total 10 times, and recorded the tumor volume before injection. Within 24 hr after the last dose, weighted the mice, and killed the mice to weight the tumor tissue, anti-tumor rate was calculated as follow: […]

HepG2.2.15 cells [6] = assay: Inoculation experiment in nude mice, HepG2.2.15 cells; assay type: in vivo
Description: as §7

GSAVMFSSKERG [Anti-HBxP1 #]
growth of the hepatoma cells (MTT assay) (L-O2-X cells): inhibits
growth of the hepatoma cells (MTT assay) (HepG2-X cells [1]): inhibits
behaviors of mice (acute toxicity) [2]: do not have abnormal behaviors
changes in weight compared with control group (acute toxicity) [2]: no abnormal changes in weight
growth of the hepatoma cells (MTT assay) (L-O2): no effect
growth of the hepatoma cells (MTT assay) (HepG2.2.15 cells [3]): inhibits
growth of the hepatoma cells (MTT assay) (HepG2): no effect
activity of NF-κB promoter ([4]; HepG2 (no HBx)): no effect
activity of NF-κB promoter ([4]; HepG2-X cells): inhibits
activity of NF-κB promoter ([4]; HepG2.2.15 cells): inhibits
activity of NF-κB promoter ([4]; L-O2 (no HBx)): no effect
activity of NF-κB promoter ([4]; L-O2-X cells): inhibits
growth and proliferation of HepG2-X cells in nude mice (HepG2-X cells [5]; 10 mg/kg, P<0.01): inhibits
Anti-tumor rate (%) (HepG2-X cells [5]; HepG2-X tumor, 10 mg/kg once in two day, 10 times): 60.22%
Tumor weight (X ± S, g) (HepG2-X cells [5]; HepG2-X tumor, 10 mg/kg once in two day, 10 times, within 24 hr after last dose): 0.37 ± 0.14 g
Weight (X ± S, g) After dose (HepG2-X cells [5]; mouse body weight after 10 mg/kg once in two day, 10 times, HepG2-X tumor): 21.08 ± 0.74 g
Weight (X ± S, g) Before dose (HepG2-X cells [5]; mouse body weight before dose, HepG2-X tumor, experimental group): 15.75 ± 0.99 g
growth and proliferation of HepG2.2.15 cells in nude mice (HepG2.2.15 cells [6]; 10 mg/kg, P<0.01): inhibits
Anti-tumor rate (%) (HepG2.2.15 cells [6]; HepG2.2.15 tumor, 10 mg/kg once in two day, 10 times): 41.27%
Tumor weight (X ± S, g) (HepG2.2.15 cells [6]; HepG2.2.15 tumor, 10 mg/kg once in two day, 10 times, within 24 hr after last dose): 0.37 ± 0.19 g
Weight (X ± S, g) After dose (HepG2.2.15 cells [6]; mouse body weight after 10 mg/kg once in two day, 10 times, HepG2.2.15 tumor): 21.08 ± 0.81 g
Weight (X ± S, g) Before dose (HepG2.2.15 cells [6]; mouse body weight before dose, HepG2.2.15 tumor, experimental group): 15.17 ± 1.17 g
